# According to US20160264593A1 (priority 2013, published 2016):
# Read-outs that look alike come from different tables or passages of the source.
# Experiment: Pharmacokinetic study of 153 (and metabolite endothal) in SD rats, iv and po; plasma, liver, brain
# Format: in vivo
# Details: for MRT last: read-out: MRT (0-t); for half-life: read-out: T1/2 (converted); for Tmax: read-out: Tmax
# Procedure: The blood, liver and brain tissue samples were collected at predetermined times from rats. […] Compound were diluted shortly before use in 4% sodium bicarbonate for sterile injection (this is the standard pediatric solution of NaHCO3 with a pH of about 8.5).
# Compound 153 was freshly prepared by diluting the drugs shortly before use in 4% sodium bicarbonate for sterile injection (this is the standard pediatric solution of NaHCO3 with a pH of about 8.5). The final concentrations of 153 solutions were 0.25 mg/mL. The 153 solutions were administered via iv or po route at dose volume of 5 ml/kg according to the latest body weight. Compound 157 was freshly prepared by diluting the drugs shortly before use in 4% sodium bicarbonate for sterile injection (this is the standard pediatric solution of NaHCO3 with a pH of about 8.5). The final concentrations of […] solutions were 0.3 mg/mL. The 157 solutions were administered via iv or po route at dose volume of 5 ml/kg according to the latest body weight.
# Twelve (12) female SD rats per group were dosed by iv with 153 or 157. The rats were fasted overnight prior to dosing, with free access to water. Foods were withheld for 2 hours post-dose. Blood, liver and brain tissue samples in two animals each group were collected at each time point, within 10% of the scheduled time for each time point. Two extra animals were used for analytic method development.
# Blood (>0.3 mL) were collected via aorta abdominalis in anaesthetic animals into tubes containing heparin at 15 min, 1, 2, 6, 10 and 24 hours after iv administration. Liver and brain tissues were collected immediately after animal death. The liver and brain tissues were excised and rinsed with cold saline to avoid blood residual. Upon collection, each sample was placed on ice and the blood samples were subsequently centrifuged (4° C., 11000 rpm, 5 min) to separate plasma. The obtained plasma, liver and brain tissue samples were stored at −70° C. until LC-MS/MS analysis.
# Two (2) female SD rats per group were dosed by po with 153 or 157. The rats were fasted overnight prior to dosing, with free access to water. Foods were withheld for 2 hours post-dose. Blood samples (>0.3 mL) were collected via aorta abdominalis in anaesthetic animals into tubes containing heparin at 30 min, 1, 2, 6, 10 and 24 hours after po administration.
# To each sample, 20 μL IS-D (for blank samples, 20 μL acetonitrile:water (1:1) was added) and 300 μl acetonitrile was added. The sample mixture was vortexed for approximately 3 min. After centrifugation at 10000 rpm for 5 min at 4° C., 100 μL of the upper layer was transferred to a new tube and added 200 μL 0.4% formic acid in water (pH 6.0). The mixture was vortexed for approximately 3 min before injected onto the LC/MS/MS system for analysis.
# On the day of the assay, the frozen liver and brain samples were thawed unassisted at room temperature. An about 200 mg weighed sample of each thawed tissue was placed into a plastic tube with water (0.6 mL) to facilitate homogenization. Tissue processing was conducted using a homogenizer for approximately 1 min, 200 μl homogenate was transferred into a fresh Eppendorf tube. To each tube, 50 μL IS-D was added and mixed. Then 600 μl acetonitrile was added and the sample mixture was vortexed for approximately 3 min. After centrifugation at 10000 rpm for 5 min at 4° C., 400 μL of the upper layer was transferred to a new tube and evaporate the supernatant to dryness at 35° C. Reconstitute the residue with 200 μL of 0.4% formic acid in water (pH6.0), and vortex for 3 min, submit for LC-MS/MS analysis.
# Frozen unknown plasma samples were completely thawed at room temperature and vortexed thoroughly. With a pipette, 50 μL of plasma was transferred into a 2.0 mL Eppendorf tube. 50 μL of 0.1N HCl and 800 μL ethyl acetate were added into each sample. The sample mixture was vortexed for approximately 3 min.
# [1] = female, SD, rat, in vivo, iv, 1.25 mg/kg, iv 1.25 mg/kg, Mean, read-out: 153 liver concentration
# [2] = female, SD, rat, in vivo, iv, 1.25 mg/kg, iv 1.25 mg/kg, Mean, read-out: 153 plasma concentration
# [3] = female, SD, rat, in vivo, iv, 1.25 mg/kg, iv 1.25 mg/kg, Rat 1, read-out: 153 brain concentration
# [4] = female, SD, rat, in vivo, iv, 1.25 mg/kg, iv 1.25 mg/kg, Rat 1, read-out: 153 liver concentration
# [5] = female, SD, rat, in vivo, iv, 1.25 mg/kg, iv 1.25 mg/kg, Rat 1, read-out: 153 plasma concentration
# [6] = female, SD, rat, in vivo, iv, 1.25 mg/kg, iv 1.25 mg/kg, Rat 2, read-out: 153 brain concentration
# [7] = female, SD, rat, in vivo, iv, 1.25 mg/kg, iv 1.25 mg/kg, Rat 2, read-out: 153 liver concentration
# [8] = female, SD, rat, in vivo, iv, 1.25 mg/kg, iv 1.25 mg/kg, Rat 2, read-out: 153 plasma concentration
# [9] = female, SD, rat, in vivo, po, 1.25 mg/kg, 153 in plasma, PO 1.25 mg/kg, Mean
# [10] = female, SD, rat, in vivo, po, 1.25 mg/kg, 153 in plasma, PO 1.25 mg/kg, rat 1
# [11] = female, SD, rat, in vivo, po, 1.25 mg/kg, 153 in plasma, PO 1.25 mg/kg, rat 2
# [12] = female, SD, rat, in vivo, po, 1.25 mg/kg, PO per title, 1.25 mg/kg, Mean, read-out: 153 liver concentration
# [13] = female, SD, rat, in vivo, po, 1.25 mg/kg, PO per title, 1.25 mg/kg, Rat 2, read-out: 153 liver concentration
# [14] = female, Sprague-Dawley (SD), rat, in vivo, iv, 1.25 mg/kg, Brain, 1.25 mg/kg IV, Mean
# [15] = female, Sprague-Dawley (SD), rat, in vivo, iv, 1.25 mg/kg, Brain, 1.25 mg/kg IV, rat 1
# [16] = female, Sprague-Dawley (SD), rat, in vivo, iv, 1.25 mg/kg, Brain, 1.25 mg/kg IV, rat 2
# [17] = female, Sprague-Dawley (SD), rat, in vivo, iv, 1.25 mg/kg, Liver, 1.25 mg/kg IV, Mean
# [18] = female, Sprague-Dawley, rat, in vivo, po, 1.25 mg/kg, PO per title, 1.25 mg/kg, Rat 1, read-out: 153 liver concentration
compound,measurement,setting,value
"CCCOC(=O)C1C2CCC(O2)C1C(=O)N1CCN(C)CC1 (stereo not shown) [Compound 153, 3-(4-Methylpiperazine-1-carbonyl)-7-oxa-bicyclo[2,2,1]heptane-2-carboxylic acid propyl ester]",concentration at 1 h,[1],126 ng/g
same,concentration at 1 h,[2],54.7 ng/mL
same,concentration at 1 h,[3],13.9 ng/g
same,concentration at 1 h,[4],131 ng/g
same,concentration at 1 h,[5],58 ng/mL
same,concentration at 1 h,[6],14.3 ng/g
same,concentration at 1 h,[7],121 ng/g
same,concentration at 1 h,[8],51.4 ng/mL
same,concentration at 2 h,"female, SD, rat, in vivo, iv, 1.25 mg/kg, iv 1.25 mg/kg, Mean, read-out: 153 brain concentration",4.4 ng/g
same,concentration at 2 h,[1],41.6 ng/g
same,concentration at 2 h,[2],13.9 ng/mL
same,concentration at 2 h,[3],4.05 ng/g
same,concentration at 2 h,[4],42 ng/g
same,concentration at 2 h,[5],14.8 ng/mL
same,concentration at 2 h,[6],4.75 ng/g
same,concentration at 2 h,[7],41.2 ng/g
same,concentration at 2 h,[8],13 ng/mL
same,concentration at 6 h,"female, SD, rat, in vivo, iv, 1.25 mg/kg, iv 1.25 mg/kg, 6 hr, Mean",1.03 ng/mL
same,concentration at 6 h,"female, SD, rat, in vivo, iv, 1.25 mg/kg, iv 1.25 mg/kg, 6 hr, Rat 1",1.04 ng/mL
same,concentration at 6 h,"female, SD, rat, in vivo, iv, 1.25 mg/kg, iv 1.25 mg/kg, 6 hr, Rat 2",1.02 ng/mL
same,concentration at 10 h,"female, SD, rat, in vivo, iv, 1.25 mg/kg, iv 1.25 mg/kg, 10 hr, Rat 2, abnormal, not included in the calculation",9.42 ng/mL
same,MRT last,[9],60.6 min
same,half-life,[9],20.6 min
same,AUC(0-inf),[10],163 ng·h/mL
same,AUC,"female, SD, rat, in vivo, po, 1.25 mg/kg, 153 in plasma, PO 1.25 mg/kg, rat 1, read-out: AUC",163 ng·h/mL
same,Cmax,"female, SD, rat, in vivo, po, 1.25 mg/kg, 153 in plasma, PO 1.25 mg/kg, rat 1, read-out: Cmax",249 ng/mL
same,MRT last,[10],59.2 min
same,half-life,[10],19.8 min
same,AUC(0-inf),[11],164 ng·h/mL
same,AUC,"female, SD, rat, in vivo, po, 1.25 mg/kg, 153 in plasma, PO 1.25 mg/kg, rat 2, read-out: AUC",164 ng·h/mL
same,Cmax,"female, SD, rat, in vivo, po, 1.25 mg/kg, 153 in plasma, PO 1.25 mg/kg, rat 2, read-out: Cmax",229 ng/mL
same,MRT last,[11],62.4 min
same,half-life,[11],21.3 min
same,AUC,"female, SD, rat, in vivo, po, 1.25 mg/kg, 153 po 1.25 mg/kg, read-out: AUC of 153 in plasma",164 ng·h/mL
same,Cmax,"female, SD, rat, in vivo, po, 1.25 mg/kg, 153 po 1.25 mg/kg, read-out: Cmax of 153 in plasma",239 ng/mL
same,concentration at 0.25 h,[12],762 ng/g
same,concentration at 0.25 h,[13],652 ng/g
same,concentration at 1 h,[12],126 ng/g
same,concentration at 1 h,"female, SD, rat, in vivo, po, 1.25 mg/kg, PO per title, 1.25 mg/kg, Rat 1, read-out: 153 liver concentration",131 ng/g
same,concentration at 1 h,[13],121 ng/g
same,AUC(0-t),"female, SD, rat, in vivo, 153 iv 1.25 mg/kg, read-out: AUClast of 153 in plasma",295 ng·h/mL
same,bioavailability,"female, SD, rat, in vivo, 153 po vs iv 1.25 mg/kg, read-out: BA (bioavailability) of 153",55.4%
same,Cmax,"female, Sprague-Dawley (SD), rat, in vivo, iv, 1.25 mg/kg, Brain, 1.25 mg/kg IV, Mean, read-out: Cmax",42.7 ng/g
same,MRT last,[14],58.3 min
same,half-life,[14],35.8 min
same,Cmax,"female, Sprague-Dawley (SD), rat, in vivo, iv, 1.25 mg/kg, Brain, 1.25 mg/kg IV, rat 1, read-out: Cmax",45 ng/g
same,MRT last,[15],56 min
same,half-life,[15],33.7 min
same,Cmax,"female, Sprague-Dawley (SD), rat, in vivo, iv, 1.25 mg/kg, Brain, 1.25 mg/kg IV, rat 2, read-out: Cmax",40.3 ng/g
same,MRT last,[16],60.6 min
same,half-life,[16],37.7 min
same,Cmax,"female, Sprague-Dawley (SD), rat, in vivo, iv, 1.25 mg/kg, Liver, 1.25 mg/kg IV, Mean, read-out: Cmax",762 ng/g
same,MRT last,[17],47.1 min
same,half-life,[17],37.6 min
same,half-life,"female, Sprague-Dawley (SD), rat, in vivo, iv, 1.25 mg/kg, Liver, 1.25 mg/kg IV, rat 2",38.6 min
same,AUC(0-inf),"female, Sprague-Dawley (SD), rat, in vivo, po, 1.25 mg/kg, 153 in plasma, PO 1.25 mg/kg, Mean",164 ng·h/mL
same,AUC,"female, Sprague-Dawley (SD), rat, in vivo, po, 1.25 mg/kg, 153 in plasma, PO 1.25 mg/kg, Mean, read-out: AUC",164 ng·h/mL
same,Cmax,"female, Sprague-Dawley (SD), rat, in vivo, po, 1.25 mg/kg, 153 in plasma, PO 1.25 mg/kg, Mean, read-out: Cmax",239 ng/mL
same,Tmax,"female, Sprague-Dawley (SD), rat, in vivo, 153 in plasma, PO 1.25 mg/kg, Mean",30 min
same,Tmax,"female, Sprague-Dawley (SD), rat, in vivo, Liver, 1.25 mg/kg IV, Mean",15 min
same,concentration at 0.25 h,[18],872 ng/g
same,concentration at 2 h,"female, Sprague-Dawley, rat, in vivo, po, 1.25 mg/kg, PO per title, 1.25 mg/kg, Mean, read-out: 153 liver concentration",41.6 ng/g
same,concentration at 2 h,[18],42 ng/g
same,concentration at 2 h,"female, Sprague-Dawley, rat, in vivo, po, 1.25 mg/kg, PO per title, 1.25 mg/kg, Rat 2, read-out: 153 liver concentration",41.2 ng/g
same,153 liver concentration,"iv 1.25 mg/kg, 6 hr, Rat 1",BLQ
same,153 liver concentration,"iv 1.25 mg/kg, 6 hr, Rat 2",BLQ
same,153 liver concentration,"iv 1.25 mg/kg, 10 hr, Rat 1",BLQ
